Data on 31 molecules can be found in patent US11981661B2, “Heterocyclic compounds” (Hoffmann-La Roche Inc., priority 2020, dated 2024).

The target in the assay is T1, MAGL (Homo sapiens, UniProt Q99685).
T1 sequence (Q99685 1-303): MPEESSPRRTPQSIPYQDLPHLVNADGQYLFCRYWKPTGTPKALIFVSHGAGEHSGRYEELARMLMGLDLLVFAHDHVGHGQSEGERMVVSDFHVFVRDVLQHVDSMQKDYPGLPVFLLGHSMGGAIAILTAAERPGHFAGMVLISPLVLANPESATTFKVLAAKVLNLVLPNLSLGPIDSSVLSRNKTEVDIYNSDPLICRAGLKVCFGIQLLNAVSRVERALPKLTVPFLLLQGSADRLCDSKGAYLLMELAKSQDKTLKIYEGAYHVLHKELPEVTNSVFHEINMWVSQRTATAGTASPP
Nature of the assay: 2-AG assay (MAGL inhibitory activity, hydrolysis of 2-arachidonoylglycerol followed by mass spectrometry). Format: biochemical. The conditions noted are these: 50 pM MAGL, 8 μM 2-arachidonoylglycerol, 15 min preincubation, 30 min incubation at RT, concentration range 12.5 μM to 0.8 pM. The procedure, abridged:
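50 pM MAGL preincubated 15 min at RT with compound (12.5 μM to 0.8 pM) in 50 mM TRIS, 1 mM EDTA, 0.01% Tween, then 8 μM 2-arachidonoylglycerol for 30 min at RT. Arachidonic acid measured by RapidFire SPE–triple quadrupole MS in negative mode, normalised to d8-arachidonic acid.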
Molecule `CN(c1ccccc1)c1ccc(C2CN(C(=O)CC[C@@H]3COC(=O)N3)C2)cn1` [Example 93, (4R)-4-[3-[3-[6-(N-Methyl-anilino)-3-pyridyl]azetidin-1-yl]-3-oxo-propyl]oxazolidin-2-one] showed an IC50 of 0.173 µM.

Molecule `CC(C)c1ccc(N(C)c2ccc(C3CN(C(=O)CC[C@@H]4COC(=O)N4)C3)cn2)cc1` [Example 94, (4R)-4-[3-[3-[6-(4-Isopropyl-N-methyl-anilino)-3-pyridyl]azetidin-1-yl]-3-oxo-propyl]oxazolidin-2-one] yielded an IC50 of 0.01 µM.

On to `O=C1N[C@H](CCC(=O)N2CC(c3ccc(N(CC4CC4)c4ccccc4)nc3)C2)CO1` [Example 95, (4R)-4-[3-[3-[6-[N-(Cyclopropyl-methyl)anilino]-3-pyridyl]azetidin-1-yl]-3-oxo-propyl]oxazolidin-2-one], for which inhibition was half-maximal at 0.00035 µM (IC50).

`COCCN(c1ccc(C2CN(C(=O)CC[C@@H]3COC(=O)N3)C2)cc1)c1cccnc1` [Example 96, (4R)-4-[3-[3-[4-[2-Methoxyethyl(3-pyridyl)amino]phenyl]azetidin-1-yl]-3-oxo-propyl]oxazolidin-2-one] had a 50% inhibitory concentration (IC50) of 0.002 µM.

`O=C1N[C@H](CCC(=O)N2CC3(C2)CN(S(=O)(=O)c2ccc(F)cc2C(F)(F)F)C3)CO1` [Example 97, (4R)-4-[3-[2-[4-Fluoro-2-(trifluoromethyl)phenyl]sulfonyl-2,6-diazaspiro[3.3]heptan-6-yl]-3-oxo-propyl] oxazolidin-2-one] registered a half-inhibitory concentration (IC50) of 0.35 µM. Compared with the last molecule, the IC50 is about 170-fold higher.

Turning to `CC(C)(C)CS(=O)(=O)N1CC2(CN(C(=O)CC[C@@H]3COC(=O)N3)C2)C1` [Example 98, (4R)-4-[3-[2-(2,2-Dimethylpropyl-sulfonyl)-2,6-diazaspiro[3.3]heptan-6-yl]-3-oxo-propyl]oxazolidin-2-one], it took 3.37 µM to reach half-maximal inhibition (IC50).

`O=C1N[C@H](CCC(=O)N2CC(c3ccc(N4CC(OCC(F)(F)F)C4)cc3)C2)CO1` [Example 99, (4R)-4-[3-Oxo-3-[3-[4-[3-(2,2,2-trifluoro-ethoxy)azetidin-1-yl]phenyl]azetidin-1-yl]propyl] oxazolidin-2-one] returned a 50% inhibitory concentration (IC50) of 0.005 µM.

The molecule `O=C1N[C@H](CCC(=O)N2CC(c3ccc(N4CC(C(F)(F)F)C4)cc3)C2)CO1` [Example 100, (4R)-4-[3-Oxo-3-[3-[4-[3-(trifluoromethyl)azetidin-1-yl]phenyl]azetidin-1-yl]propyl]oxazolidin-2-one] yielded an IC50 of 0.007 µM.

In the case of `O=C1N[C@H](CCC(=O)N2CC(c3cnc(C4(C(F)(F)F)CC4)nc3)C2)CO1` [Example 101, (4R)-4-[3-Oxo-3-(3-[2-[1-(trifluoro-methyl)cyclopropyl]pyrimidin-5-yl]azetidin-1-yl]propyl]oxazolidin-2-one], the midpoint of inhibition, the IC50, lay at 0.481 µM.

The molecule `O=C1N[C@H](CCC(=O)N2CC(c3ccc(C4(C(F)(F)F)CC4)nc3)C2)CO1` [Example 102, (4R)-4-[3-Oxo-3-[3-[6-[1-(trifluoro-methyl)cyclopropyl]-3-pyridyl]azetidin-1-yl]propyl]oxazolidin-2-one] returned a half-maximal inhibitory concentration (IC50) of 0.42 µM.

With `O=C1N[C@H](CCC(=O)N2CC(c3ccc(N4CCC(C(F)(F)F)C4)cn3)C2)CO1` (stereo partly drawn) [Example 103, (4R)-4-[3-Oxo-3-[3-[5-[3-(trifluoro-methyl)pyrrolidin-1-yl]-2-pyridyl]azetidin-1-yl]propyl]oxazolidin-2-one], the IC50 was 0.054 µM.

In the case of `CS(=O)(=O)CC1CN(c2ccc(C3CN(C(=O)CC[C@@H]4COC(=O)N4)C3)cc2)C1` [Example 104, (4R)-4-[3-[3-[4-[3-(Methyl-sulfonylmethyl)azetidin-1-yl]phenyl]azetidin-1-yl]-3-oxo-propyl]oxazolidin-2-one], the IC50 was 0.177 µM.

Molecule `O=C1N[C@H](CCC(=O)N2CC(c3cnc(N4CCC(C(F)(F)F)C4)cn3)C2)CO1` (stereo partly drawn) [Example 105, (4R)-4-[3-Oxo-3-[3-[5-[3-(trifluoro-methyl)pyrrolidin-1-yl]pyrazin-2-yl]azetidin-1-yl]propyl] oxazolidin-2-one] came in with a half-inhibitory concentration (IC50) of 0.043 µM.

In the case of `O=C1N[C@H](CCC(=O)N2CC(c3ncc(N4CCC(C(F)(F)F)C4)cn3)C2)CO1` (stereo partly drawn) [Example 106, (4R)-4-[3-Oxo-3-[3-[5-[3-(trifluoro-methyl)pyrrolidin-1-yl]pyrimidin-2-yl]azetidin-1-yl]propyl]oxazolidin-2-one], the half-maximal inhibitory concentration (IC50) worked out at 0.729 µM.

Turning to `O=C1N[C@H](CCC(=O)N2CC(c3cnc(N4CCC(C(F)(F)F)C4)nc3)C2)CO1` (stereo partly drawn) [Example 107, (4R)-[3-Oxo-3-[3-[2-[3-(trifluoro-methyl)pyrrolidin-1-yl]pyrimidin-5-yl]azetidin-1-yl]propyl]oxazolidin-2-one], the IC50 was 0.216 µM.

Molecule `CS(=O)(=O)c1ccc(-c2ccc(C3CN(C(=O)CC[C@@H]4COC(=O)N4)C3)nc2)c(Cl)c1` [Example 108, (4R)-4-[3-[3-[5-(2-Chloro-4-methylsulfonyl-phenyl)-2-pyridyl]azetidin-1-yl]-3-oxo-propyl]oxazolidin-2-one] had a concentration for half-maximal inhibition (IC50) of 0.007 µM.

Take `O=C1N[C@H](CCC(=O)N2CC(c3cccc(C4(C(F)(F)F)CC4)c3)C2)CO1` [Example 109, (4R)-4-[3-Oxo-3-[3-[3-[1-(trifluoromethyl)cyclopropyl]phenyl]azetidin-1-yl]propyl]oxazolidin-2-one]: half-maximal inhibition (IC50) required 0.039 µM.

Molecule `CS(=O)(=O)c1ccc(-c2cnc(C3CN(C(=O)CC[C@@H]4COC(=O)N4)C3)cn2)c(Cl)c1` [Example 110, (4R)-4-[3-[3-[5-(2-Chloro-4-methylsulfonyl-phenyl)pyrazin-2-yl]azetidin-1-yl]-3-oxo-propyl]oxazolidin-2-one] showed an IC50 of 0.07 µM. This IC50 is about 1.8-fold higher than that of the molecule before.

Consider `CC(C)(C)S(=O)(=O)c1ccc(C2CN(C(=O)CC[C@@H]3COC(=O)N3)C2)cn1` [Example 111, (4R)-4-[3-[3-(6-tert-Butylsulfonyl-3-pyridyl)azetidin-1-yl]-3-oxo-propyl]oxazolidin-2-one], for which half-maximal inhibition (IC50) was put at 1.17 µM.

Turning to `O=C1N[C@H](CCC(=O)N2CC(c3ncc(-c4ccc(Cl)cc4F)cn3)C2)CO1` [Example 112, (4R)-4-[3-[3-[5-(4-Chloro-2-fluoro-phenyl)pyrimidin-2-yl]azetidin-1-yl]-3-oxo-propyl]oxazolidin-2-one], the IC50 came out at 0.043 µM.

On to `O=C1N[C@H](CCC(=O)N2CC(c3ccc(-c4ccc(Cl)cc4F)cn3)C2)CO1` [Example 113, (4R)-4-[3-[3-[5-(4-Chloro-2-fluoro-phenyl)-2-pyridyl]azetidin-1-yl]-3-oxo-propyl]oxazolidin-2-one], for which the IC50 was found to be 0.003 µM.

Molecule `O=C1N[C@H](CCC(=O)N2CC(c3ccc(-c4ccc(Cl)cc4Cl)cn3)C2)CO1` [Example 114, (4R)-4-[3-[3-[5-(2,4-Dichloro-phenyl)-2-pyridyl]azetidin-1-yl]-3-oxo-propyl]oxazolidin-2-one] yielded an IC50 of 0.00018 µM.

As to `CS(=O)(=O)c1cc(Cl)cnc1-c1ccc(C2CN(C(=O)CC[C@@H]3COC(=O)N3)C2)cc1` [Example 115, (4R)-4-[3-[3-[4-(5-Chloro-3-methylsulfonyl-2-pyridyl)phenyl]azetidin-1-yl]-3-oxo-propyl]oxazolidin-2-one], the IC50 came out at 0.003 µM.

In the case of `CS(=O)(=O)c1ccc(-c2ccc(C3CN(C(=O)CC[C@@H]4COC(=O)N4)C3)cn2)c(Cl)c1` [Example 116, (4R)-4-[3-[3-[6-(2-Chloro-4-methylsulfonyl-phenyl)-3-pyridyl]azetidin-1-yl]-3-oxo-propyl]oxazolidin-2-one], the IC50 worked out at 0.16 µM. This IC50 lies about 53-fold higher than the previous one.

`CS(=O)(=O)c1cc(Cl)ccc1-c1ccc(C2CN(C(=O)CC[C@@H]3COC(=O)N3)C2)cn1` [Example 117, (4R)-4-[3-[3-[6-(4-Chloro-2-methylsulfonyl-phenyl)-3-pyridyl]azetidin-1-yl]-3-oxo-propyl]oxazolidin-2-one] came in with a concentration for half-maximal inhibition (IC50) of 0.01 µM.

Take `CS(=O)(=O)c1cc(Cl)ncc1-c1ccc(C2CN(C(=O)CC[C@@H]3COC(=O)N3)C2)cc1` [Example 118, (4R)-4-[3-[3-[4-(6-Chloro-4-methylsulfonyl-3-pyridyl)phenyl]azetidin-1-yl]-3-oxo-propyl] oxazolidin-2-one]: the IC50 is 0.012 µM.

In turn, `O=C1N[C@H](CCC(=O)N2CC(c3ccc(-c4cnc(C(F)(F)F)cn4)cc3)C2)CO1` [Example 119, (4R)-4-[3-Oxo-3-[3-[4-[5-(trifluoromethyl)pyrazin-2-yl]phenyl]azetidin-1-yl]propyl] oxazolidin-2-one] yielded a half-inhibitory concentration (IC50) of 0.033 µM. This IC50 lies about 2.8-fold higher than the previous one.

For `CS(=O)(=O)c1cc(C2CN(C(=O)CC[C@@H]3COC(=O)N3)C2)ccc1-c1ccc(Cl)cc1F` [Example 120, (4R)-4-[3-[3-[4-(4-Chloro-2-fluoro-phenyl)-3-methylsulfonyl-phenyl]azetidin-1-yl]-3-oxo-propyl]oxazolidin-2-one], the midpoint of inhibition, the IC50, lay at 0.019 µM. Against the preceding molecule, the IC50 is about 1.7-fold lower.

On to `CS(=O)(=O)c1cc(Cl)ccc1-c1ccc(C2CN(C(=O)CC[C@@H]3COC(=O)N3)C2)nc1` [Example 121, (4R)-4-[3-[3-[5-(4-Chloro-2-methylsulfonyl-phenyl)-2-pyridyl]azetidin-1-yl]-3-oxo-propyl]oxazolidin-2-one], for which the IC50 amounted to 0.002 µM. Compared with the last molecule, the IC50 is about 9.5-fold lower.

`CS(=O)(=O)c1ccc(-c2cnc(C3CN(C(=O)CC[C@@H]4COC(=O)N4)C3)nc2)c(Cl)c1` [Example 122, (4R)-4-[3-[3-[5-(2-Chloro-4-methylsulfonyl-phenyl)pyrimidin-2-yl]azetidin-1-yl]-3-oxo-propyl] oxazolidin-2-one] returned an IC50 of 0.379 µM.

On to `CS(=O)(=O)c1ccc(-c2ncc(C3CN(C(=O)CC[C@@H]4COC(=O)N4)C3)cn2)c(Cl)c1` [Example 123, (4R)-4-[3-[3-[2-(2-Chloro-4-methylsulfonyl-phenyl)pyrimidin-5-yl]azetidin-1-yl]-3-oxo-propyl] oxazolidin-2-one], for which the IC50 was 0.982 µM.
